Active and inactive are the calls of the source. The rule behind the calls is not given here.
Key:
[1] = molecular target: T1, Tyrosine-protein kinase BTK (Homo sapiens, UniProt Q06187); experiment: Inhibition of BTK (unknown origin) at 0.1 uM in the presence of ATP by caliper mobility shift assay relative to control
[2] = system: Daudi; experiment: Antiproliferative activity against human Daudi cells; type: functional, cell-based; parameters: fold change (FC): reference not given here; conditions: for IC50: Homo sapiens, Daudi
[3] = system: JeKo-1; experiment: Antiproliferative activity against human JeKo1 cells; type: functional, cell-based; parameters: fold change (FC): reference not given here; conditions: for IC50: Homo sapiens, JeKo-1
[4] = molecular target: T1, Tyrosine-protein kinase BTK; experiment: Inhibition of BTK (unknown origin) at 1 uM in the presence of ATP by caliper mobility shift assay relative to control
[5] = molecular target: T1, Tyrosine-protein kinase BTK; experiment: Inhibition of BTK (unknown origin) in the presence of ATP by caliper mobility shift assay
[6] = system: Ramos; experiment: Antiproliferative activity against human Ramos cells; type: functional, cell-based; parameters: fold change (FC): reference not given here; conditions: for IC50: Homo sapiens, Ramos
[7] = system: Mus musculus; experiment: Antiarthritic activity in DBA1/J mouse model of collagen-induced arthritis assessed as reduction in bone erosion at 12.5 mg/kg, po qd by H and E staining based assay; type: functional, organism-based
[8] = system: Mus musculus; experiment: Antiarthritic activity in DBA1/J mouse model of collagen-induced arthritis assessed as reduction in cartilage damage at 12.5 mg/kg, po qd by H and E staining based assay; type: functional, organism-based

T1 sequence (Q06187 whole entry): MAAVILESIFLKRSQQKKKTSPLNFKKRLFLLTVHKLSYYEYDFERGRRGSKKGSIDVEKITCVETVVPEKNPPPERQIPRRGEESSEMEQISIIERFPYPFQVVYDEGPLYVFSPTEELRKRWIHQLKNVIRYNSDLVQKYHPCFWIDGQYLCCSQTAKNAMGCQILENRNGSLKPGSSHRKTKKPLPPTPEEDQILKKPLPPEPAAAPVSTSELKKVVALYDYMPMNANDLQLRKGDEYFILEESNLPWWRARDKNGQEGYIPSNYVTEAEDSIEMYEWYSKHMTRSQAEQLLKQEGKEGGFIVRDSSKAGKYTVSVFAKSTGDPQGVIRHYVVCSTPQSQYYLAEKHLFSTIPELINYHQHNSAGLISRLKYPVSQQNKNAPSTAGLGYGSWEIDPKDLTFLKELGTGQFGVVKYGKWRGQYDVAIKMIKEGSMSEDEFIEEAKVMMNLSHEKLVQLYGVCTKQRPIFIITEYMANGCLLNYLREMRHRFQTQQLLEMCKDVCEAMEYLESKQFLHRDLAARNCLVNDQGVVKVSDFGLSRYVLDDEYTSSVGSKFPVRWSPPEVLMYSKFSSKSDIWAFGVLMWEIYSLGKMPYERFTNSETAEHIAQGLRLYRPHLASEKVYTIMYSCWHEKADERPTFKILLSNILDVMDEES

| SMILES | inhibition [1] | IC50 [2] | IC50 [3] | inhibition [4] | IC50 [5] | IC50 [6] | Activity [7] | Activity [8] | fold change (FC) [2] | fold change (FC) [3] | fold change (FC) [6] |
| --- | --- | --- | --- | --- | --- | --- | --- | --- | --- | --- | --- |
| Nc1ncnc2c1c(-c1ccc3c(c1)OCO3)cn2C[C@@H]1CCN(C[C@@H]2CO2)C1 | 48.3% | 15.9 µM | 10.3 µM | 86.3% | 0.123 µM | 13.3 µM | – | – | – | – | – |
| Nc1ncnc2c1c(-c1ccc3c(c1)OCO3)cn2[C@H]1CCN(C2COC2)C1 | 19.7% | > 50 µM | > 50 µM | 52% | > 0.5 µM | > 50 µM | – | – | – | – | – |
| Nc1ncnc2c1c(-c1ccc3c(c1)OCO3)cn2[C@@H]1CCN(C[C@H]2CO2)C1 | 15.2% | 53.8 µM | 32.5 µM | 42% | > 0.5 µM | > 50 µM | – | – | – | – | – |
| C=CC(=O)N1CCC[C@@H](n2nc(-c3ccc(Oc4ccccc4)cc3)c3c(N)ncnc32)C1 [IBRUTINIB] | – | 3.92 µM | 1.05 µM | – | – | 5.01 µM | Active | inactive | – | – | – |
| Nc1ncnc2c1c(-c1ccc3c(c1)OCO3)cn2[C@H]1CCN(C[C@@H]2CO2)C1 | 87.6% | 2.39 µM | 3.41 µM | 93.5% | 0.0366 µM | 12.5 µM | – | – | – | – | – |
| CN(C)C(=O)N1CC[C@H](n2cc(-c3ccc4c(c3)OCO4)c3c(N)ncnc32)C1 | 1.87% | 14.6 µM | 24.2 µM | 42.6% | – | 27.7 µM | – | – | – | – | – |
| Nc1ncnc2c1c(-c1ccc(Oc3ccccc3)cc1)cn2C[C@H]1CCCN1C(CO)CO | 18.3% | 28.2 µM | 14.5 µM | 54.7% | – | 15.3 µM | – | – | – | – | – |
| Nc1ncnc2c1c(-c1ccc3c(c1)OCO3)cn2C[C@@H]1CCCN1C[C@@H]1CO1 | 13.5% | 19 µM | 21.6 µM | 47.6% | – | 29 µM | – | – | – | – | – |
| Nc1ncnc2c1c(-c1cc3ccccc3o1)cn2[C@H]1CCN(C[C@@H]2CO2)C1 | 20.2% | 4.51 µM | 2.82 µM | 59.1% | – | 6.74 µM | – | – | – | – | – |
| NC(=O)CN1CC[C@H](n2cc(-c3ccc4c(c3)OCO4)c3c(N)ncnc32)C1 | 12.6% | 3.45 µM | 4.98 µM | 48.6% | > 0.5 µM | 13.3 µM | – | – | – | – | – |
| Nc1ncnc2c1c(-c1ccc3c(c1)OCO3)cn2[C@H]1CCN(C(=O)c2ccccn2)C1 | 1.45% | 12.3 µM | 19.5 µM | 28.1% | – | 20.7 µM | – | – | – | – | – |
| Nc1ncnc2c1c(-c1ccc3c(c1)OCO3)cn2C[C@H]1CCN(C[C@@H]2CO2)C1 | 23.9% | 15 µM | 7.25 µM | 63.7% | – | 27 µM | – | – | – | – | – |
| Nc1ncnc2c1c(-c1ccc3c(c1)OCO3)cn2[C@H]1CCN(C[C@H]2CO2)C1 | 62.2% | 2.44 µM | 2.28 µM | 86.5% | 0.0419 µM | 5 µM | – | – | – | – | – |
| Nc1ncnc2c1c(-c1ccc3c(c1)OCO3)cn2[C@H]1CCN(C(=O)C2CC2)C1 | -3.67% | – | – | 34% | 0.045 µM | – | – | – | – | – | – |
| Nc1ncnc2c1c(-c1ccc(NC(=O)c3ccccc3)cc1)cn2[C@H]1CCN(C[C@@H]2CO2)C1 | 2.53% | 3.18 µM | 5.39 µM | 22.9% | – | 2.25 µM | – | – | – | – | – |
| Nc1ncnc2c1c(-c1cc3ccccc3o1)cn2[C@H]1CCN(C[C@H]2CO2)C1 | 17.4% | 4.21 µM | 0.63 µM | 62.9% | – | 1.65 µM | – | – | – | – | – |
| Nc1ncnc2c1c(-c1ccc3c(c1)OCO3)cn2[C@H]1CCN(C(=O)c2ccccc2)C1 | 37.1% | 8.26 µM | 17 µM | 29.4% | – | 35.2 µM | – | – | – | – | – |

| SMILES | inhibition [1] | IC50 [2] | IC50 [3] | inhibition [4] | IC50 [5] | IC50 [6] | Activity [7] | Activity [8] | fold change (FC) [2] | fold change (FC) [3] | fold change (FC) [6] |
| --- | --- | --- | --- | --- | --- | --- | --- | --- | --- | --- | --- |
| Nc1ncnc2c1c(-c1ccc3c(c1)OCO3)cn2C[C@@H]1CCCN(C[C@@H]2CO2)C1 | 16.2% | 10.5 µM | 8.85 µM | 49.2% | – | 13.1 µM | – | – | – | – | – |
| Nc1ncnc2c1c(-c1ccc(Oc3ccccc3)cc1)cn2C[C@H]1CCCN1C[C@@H](O)CO | 23.9% | 14.4 µM | 9.54 µM | 62.5% | – | 13.5 µM | – | – | – | – | – |
| CC(C)(C)c1ccc(COc2ccc(-c3cn([C@H]4CCN(C[C@@H]5CO5)C4)c4ncnc(N)c34)cc2)cc1 | 3.73% | 6.97 µM | 5.97 µM | 7.63% | – | 4.21 µM | – | – | – | – | – |
| CC1(C(=O)N2CC[C@H](n3cc(-c4ccc5c(c4)OCO5)c4c(N)ncnc43)C2)COC1 | -0.35% | 30.5 µM | 36.4 µM | 22.4% | – | 39 µM | – | – | – | – | – |
| C[C@@H]1C[C@H](n2cc(-c3ccc4c(c3)OCO4)c3c(N)ncnc32)CN1C[C@@H]1CO1 | 12.7% | 10.9 µM | 4.61 µM | 47.1% | – | 7.97 µM | – | – | – | – | – |
| CC(C)(C)c1ccc(C(=O)Nc2ccc(-c3cn([C@H]4CCN(C[C@@H]5CO5)C4)c4ncnc(N)c34)cc2)cc1 | 15.7% | 5.98 µM | 3.29 µM | 53.8% | – | 2.97 µM | – | – | – | – | – |
| Nc1ncnc2c1c(-c1cnc3[nH]ccc3c1)cn2[C@H]1CCN(C[C@@H]2CO2)C1 | 12.8% | 2.99 µM | 9.44 µM | 46.6% | – | 4.65 µM | – | – | – | – | – |
| Nc1ncnc2c1c(-c1ccc3c(c1)OCO3)cn2C1CCN(C[C@@H]2CO2)CC1 | 60.2% | 21.3 µM | 12.9 µM | 89.4% | – | 32.8 µM | – | – | – | – | – |
| Nc1ncnc2c1c(-c1ccc3c(c1)OCO3)cn2[C@H]1CCN(CC2CO2)C1 (some centres undefined) | 70.1% | – | – | 96.6% | 0.0455 µM | – | – | – | – | – | – |
| Nc1ncnc2c1c(-c1ccc(C(=O)Nc3ccc(Oc4ccccc4)cc3)cc1)cn2[C@H]1CCN(C[C@@H]2CO2)C1 | 7.58% | 4.39 µM | 2.07 µM | 36.9% | – | 3.63 µM | – | – | – | – | – |
| Nc1ncnc2c1c(-c1ccc(Oc3ccccc3)cc1)cn2[C@H]1CCN(C[C@H]2CO2)C1 | 52% | 15.7 µM | 5.08 µM | 90.1% | 0.0894 µM | > 50 µM | – | – | 3 - 10 | 3 - 10 | 3 - 10 |
| Nc1ncnc2c1c(-c1ccc3c(c1)OCO3)cn2[C@H]1CCN(Cc2cc(F)cc(F)c2)C1 | 6.07% | 11.6 µM | 1.69 µM | 30.2% | – | 6.6 µM | – | – | – | – | – |
| COC(CN1CC[C@H](n2cc(-c3ccc4c(c3)OCO4)c3c(N)ncnc32)C1)OC | 4.71% | 53.5 µM | 2.45 µM | 37.1% | – | 24.9 µM | – | – | – | – | – |
| Nc1ncnc2c1c(-c1ccc(Oc3ccccc3)cc1)cn2[C@H]1CCN(C[C@@H]2CO2)C1 | 79.1% | 5.48 µM | 1.48 µM | 98.1% | 0.0311 µM | 6.71 µM | – | – | – | – | – |
| CC1(CN2CC[C@H](n3cc(-c4ccc5c(c4)OCO5)c4c(N)ncnc43)C2)COC1 | 13.9% | 44.7 µM | 19 µM | 36.1% | > 0.5 µM | 20.4 µM | – | – | – | – | – |
| Nc1ncnc2c1c(-c1ccc3c(c1)OCO3)cn2C[C@H]1CCCN1C[C@@H]1CO1 | 81.6% | 8.97 µM | 4.83 µM | 94.5% | 0.0089 µM | 18 µM | – | – | – | – | – |
